What was measured:
P-gp = target: T1, P-gp (Mus musculus, UniProt P21447); test: Potential for drug-drug interactions through P-gp in vivo (Kp with or without cyclosporin A); settings: mice, Kp with versus without cyclosporin A (20 mg/kg)
T1 construct: from tissue; host or cells: living mice (Jcl; C57BL/6J, male, 7 weeks), brain / blood-brain barrier
Protocol: Transportability of the compounds of this invention through the blood-brain barrier (blood-brain partition coefficient; Kp) in mice (Jcl; C57BL/6J mice, ♂, 7 weeks) was defined from the difference in concentration of the compounds between in plasma and in brain after intravenous administration of the compounds (0.5 mg/2 mL/kg). The brain Kp value of Compound (I-72) (Kp Cont.) was 1.29 showing high transportability through the blood-brain barrier.
To examine the potential for drug-drug interactions through P-gp in vivo, the Kp values of compounds of this invention with (KpCSA) or without (KpCont.) cyclosporin A (20 mg/kg), a P-gp inhibitor, were calculated. The KpCSA value of Compound (I-72) was 1.14, and the calculated KpCSA KpCont. ratio was 0.9.
On the other hand the potential for drug-drug interactions through P-pg of amide compound B which has similar structure of Compound (I-72) was also examined in mice. The KpCont. and KpCSA were 0.04 and 0.84, respectively.

mouse NPY Y5 receptor = target: T2, mouse NPY Y5 receptor (Mus musculus, UniProt O70342); test: Affinity for mouse NPY Y5 receptor ([125I] peptide YY binding, CHO cell membranes); settings: membranes of CHO cells expressing mouse NPY Y5 receptor
T2 construct: expressed in transfected cells; membranes used
T2 sequence (O70342 1-466): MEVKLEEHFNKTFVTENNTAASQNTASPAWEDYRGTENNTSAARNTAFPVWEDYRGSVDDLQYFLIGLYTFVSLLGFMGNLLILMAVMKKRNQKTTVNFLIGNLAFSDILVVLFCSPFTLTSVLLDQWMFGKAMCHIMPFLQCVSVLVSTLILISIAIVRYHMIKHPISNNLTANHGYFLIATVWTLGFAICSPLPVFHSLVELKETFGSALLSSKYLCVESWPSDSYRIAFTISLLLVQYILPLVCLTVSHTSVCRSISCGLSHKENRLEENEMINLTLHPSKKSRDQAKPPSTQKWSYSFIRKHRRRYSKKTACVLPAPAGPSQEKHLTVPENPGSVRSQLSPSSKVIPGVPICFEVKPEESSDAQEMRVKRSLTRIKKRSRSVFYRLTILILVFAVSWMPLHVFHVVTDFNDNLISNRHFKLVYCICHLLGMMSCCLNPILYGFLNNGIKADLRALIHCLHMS
Excerpt: cDNA sequence encoding a mouse NPY Y5 receptor (Biochim. Biophys. Acta 1328, 83-89, 1997) was cloned in a vector (pME18S, Takebe et al. Mol. Cell. Biol. 8, 466-472). The obtained expression vector was transfected into CHO cells as a host by using Lipofect AMINE reagent (Trademark, Gico BRL Co., Ltd.) according to the instruction manual. The cells that stably express NPY Y5 receptor were obtained.
The membranes prepared from the CHO cells expressing NPY Y5 receptor, the compound of this invention and 30,000 cpm [^125I] peptide YY (60 pM of final concentration: Amersham) were incubated in the assay buffer (20 mM HEPES-Hanks buffer containing 0.1% bovine serum albumin, pH 7.4) at 25° C. for 2 hours, and then the membrane was filtered from the mixture through a glassfilter (GF/C) presoaked with 1% polyethyleneimine. After washing with 50 mM Tris-HCl buffer (pH 7.4), radioactivity retained on the filters was quantified with a gamma counter.
Nonspecific binding was defined as the amount of radioactivity bound to the membranes after incubation in the presence of 200 nM of peptide YY. The 50% inhibitory concentration of the test compound against the specific peptide YY binding (IC50 value) was calculated (Inui, A. et al. Endocrinology 131, 2090-2096 (1992)).

male C57BL/6J mice = test: Inhibition of Y5 agonist-induced food intake in mice; format: in vivo; settings: Mus musculus, 4 hours after dosing, read-out: Inhibition ratio of Y5 agonist-induced food intake; for inhibition in vivo at 6 mg/kg: unmarked cells
Protocol: Under diethylether anesthesia the skull of male C57BL/6J mice (12-14 week old, 25-30 g) was exposed by making an incision about 1-cm long from external occipital crest to nasal dorsum, and then drilled in the 1-mm lateral position to the left following 1-mm posterior from bregma. After recovery from anesthesia mice were dosed with either 0.5% hydroxypropylmethyl cellulose solution (vehicle, Shin-Etsu Chemical Co., Ltd) or the compounds of this invention suspended in the 0.5% hydroxypropylmethyl cellulose solution. At one hour after the treatment, each animal received saline or a NPY Y5 receptor specific agonist, [cPP^1-7, NPY^19-23, Ala^31, Aib^32, Gln^34]-hPancreatic Polypeptide (0.1 nmol/1.5 μL saline/mouse) through the skull opening using a canula. Residual food was measured at 2 and 4 hours after the treatment.

[1] = test system: high-fat diet-induced obese mice; test: Suppression of body weight gain in high-fat diet-induced obese mice; format: in vivo; settings: 6 mg/kg b.i.d. for 3 weeks, compared to vehicle
Protocol: Prior to administration of the compounds of this invention, male C57BL/6J mice were given a high-fat diet to induce obese. The high-fat diet-induced obese mice (13-14 week old, body weight 28-33 g) were dosed with 0.5% hydroxypropylmethyl cellulose solution (vehicle, Shin-Etsu Chemical Co., Ltd) or the compounds of this invention suspended in the 0.5% hydroxypropylmethyl cellulose solution twice a day (b.i.d.) for 3 weeks with the same diet. The changes in body weight were monitored daily.

T1 sequence (P21447 whole entry): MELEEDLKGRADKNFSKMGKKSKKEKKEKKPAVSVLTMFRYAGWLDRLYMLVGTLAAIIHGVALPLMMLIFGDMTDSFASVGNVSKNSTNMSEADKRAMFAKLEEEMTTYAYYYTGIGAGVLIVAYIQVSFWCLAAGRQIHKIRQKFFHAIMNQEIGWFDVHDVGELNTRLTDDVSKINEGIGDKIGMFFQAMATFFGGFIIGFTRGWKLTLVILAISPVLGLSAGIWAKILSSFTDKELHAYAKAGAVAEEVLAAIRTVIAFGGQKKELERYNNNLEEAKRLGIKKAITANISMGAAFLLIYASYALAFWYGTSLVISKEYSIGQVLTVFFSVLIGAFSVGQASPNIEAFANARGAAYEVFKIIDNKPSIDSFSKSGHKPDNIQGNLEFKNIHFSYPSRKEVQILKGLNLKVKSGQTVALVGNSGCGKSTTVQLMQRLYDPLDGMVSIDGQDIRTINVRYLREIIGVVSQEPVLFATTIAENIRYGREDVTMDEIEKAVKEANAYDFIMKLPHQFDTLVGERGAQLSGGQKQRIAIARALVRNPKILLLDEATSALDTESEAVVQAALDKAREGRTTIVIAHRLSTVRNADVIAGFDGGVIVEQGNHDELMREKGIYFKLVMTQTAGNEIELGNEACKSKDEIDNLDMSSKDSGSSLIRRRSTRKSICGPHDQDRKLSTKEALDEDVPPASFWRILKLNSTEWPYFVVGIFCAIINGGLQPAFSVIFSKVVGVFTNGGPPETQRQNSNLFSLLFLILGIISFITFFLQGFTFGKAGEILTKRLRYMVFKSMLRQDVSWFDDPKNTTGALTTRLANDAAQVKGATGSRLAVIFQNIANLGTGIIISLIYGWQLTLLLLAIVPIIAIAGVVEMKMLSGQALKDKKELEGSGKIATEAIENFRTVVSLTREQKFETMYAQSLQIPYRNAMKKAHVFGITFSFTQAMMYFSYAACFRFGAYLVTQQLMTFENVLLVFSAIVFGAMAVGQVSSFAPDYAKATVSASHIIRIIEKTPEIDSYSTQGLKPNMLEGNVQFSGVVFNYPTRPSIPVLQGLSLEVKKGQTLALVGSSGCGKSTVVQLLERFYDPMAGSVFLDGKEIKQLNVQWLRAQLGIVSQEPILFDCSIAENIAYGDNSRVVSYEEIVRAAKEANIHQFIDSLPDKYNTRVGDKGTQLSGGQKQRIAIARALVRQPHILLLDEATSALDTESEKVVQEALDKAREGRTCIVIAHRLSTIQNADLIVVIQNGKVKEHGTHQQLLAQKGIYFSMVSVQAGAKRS

Row | SMILES | melting point [°C] | inhibition in vivo at 6 mg/kg (male C57BL/6J mice) [%] | also measured
1 | C[C@@H]1CN(c2ccc(NC[C@H]3CC[C@H](NS(=O)(=O)C(C)(C)C)CC3)cc2)C[C@H](C)O1 [Compound I-72] |  |  | KpCSA/KpCont. ratio (P-gp): 0.9
2 | CCS(=O)(=O)N[C@H]1CC[C@H](CNc2cc(-c3ccccc3)on2)CC1 [Ii-44] |  |  | IC50 (mouse NPY Y5 receptor): 3.4 nM
3 | Cn1c(=O)oc2cc(NC[C@H]3CC[C@H](NS(=O)(=O)C(C)(C)C)CC3)cc(F)c21 [Ii-45] |  | 76.2 | Body weight gain [1]: suppresses Body Weight Gain
4 | CC(C)S(=O)(=O)N[C@H]1CC[C@H](CNc2cc(F)cc(N3CCOCC3)c2)CC1 [Ii-55] |  | 64.3 | 
5 | CCS(=O)(=O)NC[C@H]1CC[C@H](Nc2ccc(-c3ccccc3)cn2)CC1 [Ij-4] |  | 88.2 | 
6 | CC(C)(C)S(=O)(=O)NC[C@H]1CC[C@H](Nc2ccn(-c3ccccc3F)n2)CC1 [Ij-110] |  | 90.3 | 
7 | CCS(=O)(=O)NC[C@H]1CC[C@H](Nc2ccn(-c3ccccc3F)n2)CC1 [Ij-112] |  |  | Body weight gain [1]: suppresses Body Weight Gain
8 | CC(C)S(=O)(=O)NC[C@H]1CC[C@H](Nc2nc3cccc(F)c3s2)CC1 [Ij-153] |  | 73 | 
9 | CC(C)S(=O)(=O)NC[C@H]1CC[C@H](Nc2nc3cc(F)ccc3o2)CC1 [Ij-155] |  |  | inhibition in vivo at 1.5 mg/kg (male C57BL/6J mice): 56.1%
10 | CC(C)(C)S(=O)(=O)NC[C@H]1CC[C@H](Nc2nc3ccc(F)cc3o2)CC1 [Ij-159] |  | 83.2 | 
11 | CCC(C)S(=O)(=O)NC[C@H]1CC[C@H](Nc2nc3cc(F)ccc3o2)CC1 (stereo partly drawn) [Ij-160] |  |  | inhibition in vivo at 1.5 mg/kg (male C57BL/6J mice): 36.6%
12 | C[C@@H]1CN(c2ccc(NC(=O)[C@H]3CC[C@H](NS(=O)(=O)C(C)(C)C)CC3)cc2)C[C@H](C)O1 [amide compound B, reference compound] |  |  | KpCSA/KpCont. ratio (P-gp): 20.5

More lines, main results first:

Row | melting point [°C] | SMILES | inhibition in vivo at 6 mg/kg (male C57BL/6J mice) [%] | also measured
13 | 170 to 171 | CCS(=O)(=O)NC[C@H]1CC[C@H](Nc2nc3ccccc3o2)CC1 [Ij-150] | 25.3 | 
14 | 165 to 166 | CC(C)S(=O)(=O)NC[C@H]1CC[C@H](Nc2nc3cc(F)ccc3s2)CC1 [Ij-151] |  | inhibition in vivo at 1.5 mg/kg (male C57BL/6J mice): 78.4%
15 | 151 to 152 | CC(C)S(=O)(=O)NC[C@H]1CC[C@H](Nc2nc3ccc(F)cc3s2)CC1 [Ij-152] |  | inhibition in vivo at 1.5 mg/kg (male C57BL/6J mice): 62.6%
16 | 166 to 167 | CC(C)S(=O)(=O)NC[C@H]1CC[C@H](Nc2nc3cc(Cl)ccc3s2)CC1 [Ij-154] | 81.3 | 
17 | 170 to 171 | CC(C)S(=O)(=O)NC[C@H]1CC[C@H](Nc2nc3ccc(F)cc3o2)CC1 [Ij-156] |  | inhibition in vivo at 12.5 mg/kg (male C57BL/6J mice; **Dose: 12.5 mg/kg): 90.4%
18 | 220 to 221 | CC(C)(C)S(=O)(=O)NC[C@H]1CC[C@H](Nc2nc3cc(F)ccc3o2)CC1 [Ij-158] | 70.5 | 
19 | 173 to 174 | CCC(C)S(=O)(=O)NC[C@H]1CC[C@H](Nc2nc3ccc(F)cc3o2)CC1 (stereo partly drawn) [Ij-161] |  | inhibition in vivo at 1.5 mg/kg (male C57BL/6J mice): 15.8%
